Results reported in patent US8436043B2 (Takeda Pharmaceutical Company Limited, priority 2008, dated 2013).
pIC50: −log10 of the molar value.

Target: T1, human glucagon receptor (Homo sapiens, UniProt P47871)
T1 construct: made in house; host or cells: FreeStyle CHO cells, transient transfection with pMSRαneo/hGCGR; membrane fraction (35,000 rpm pellet)
Experiment: Glucagon binding inhibitory activity ([125I]-glucagon binding to glucagon receptor membrane protein)
Settings: human glucagon receptor membrane protein, [125I]-glucagon, 90 min room temperature
Method: The glucagon binding inhibitory action of the compound of the present invention was evaluated by the following method.
(1) Cloning of Human Glucagon Receptor Gene
Human glucagon receptor gene was cloned by PCR reaction using human pancreas Marathon-ready cDNA (Clontech) as a template and the following primer set.
PCR reaction was performed using Advantage 2 polymerase (Clontech) and according to the attached protocol. The obtained PCR product was electrophoresed on an agarose gel (1%). An about 1.4 kb of DNA fragment containing a glucagon receptor gene was recovered from the gel and digested with restriction enzymes EcoRI and NotI. DNA treated with the restriction enzymes was electrophoresed on an agarose gel (1%). An about 1.4 kb of DNA fragment was recovered and ligated to plasmid pMSRαneo digested with restriction enzymes EcoRI and NotI to construct a human-type glucagon receptor expression plasmid DNA “pMSRαneo/hGCGR”.
(2) Preparation of Glucagon Receptor Membrane Protein
A human-type glucagon receptor was expressed using FreeStyle CHO Expression System (Invitrogen). A transient expression in FreeStyle CHO cell was performed using a human-type glucagon receptor expression plasmid DNA “pMSRαneo/hGCGR” and according to the manual attached to the FreeStyle CHO Expression System. The above-mentioned DNA was transfected and the cultured with shaking for 2 days (37° C., 8% CO2, 125 rpm). 2400 ml of culture medium was centrifuged at 2,000 rpm for 10 min and the cells were collected. The collected cells were washed with PBS, suspended in homogenate buffer [10 mM NaHCO3 (pH 7.4), 1 mM EDTA, Complete EDTA-free (Roche, 1 tablet/50 ml)] and disrupted by polytron cell disrupter (Kinematica AG). Disruption solution was centrifuged at 2,000 rpm for 10 min and the supernatant was collected.
(3) Measurement of Glucagon Binding Inhibitory Activity
The plate was stood for 90 min at room temperature. The reaction solution was transferred from the reaction plate to a 96 well unifilter GF/C plate (Perkin Elmer Inc.) using a cell harvester (Perkin Elmer Inc.) and the membrane fraction was collected on the filter by suction. The filter was presoaked in 2 mg/ml of polyethyleneimine to prevent non-specific adsorption of labeled ligand. The filter was washed 4 times with a reaction buffer and dried for 2 hr at 42° C. To each well was added 25 μl of scintillator (MicroScint0; Perkin Elmer Inc.), and the fluorescence amount was measured using a microplate scintillation counter (TopCount NXT™; Perkin Elmer Inc.).
In addition, the inhibitory rate (%) of the well added with the test compound (10 μM; containing 0.4% DMSO) was calculated, using the reaction rate of the well added only with 0.4% DMSO as 0% inhibitory rate, and the reaction rate of the well added with non-labeled glucagon (final concentration 1 μM) as 100% inhibitory rate.

T1 sequence (P47871 26-477): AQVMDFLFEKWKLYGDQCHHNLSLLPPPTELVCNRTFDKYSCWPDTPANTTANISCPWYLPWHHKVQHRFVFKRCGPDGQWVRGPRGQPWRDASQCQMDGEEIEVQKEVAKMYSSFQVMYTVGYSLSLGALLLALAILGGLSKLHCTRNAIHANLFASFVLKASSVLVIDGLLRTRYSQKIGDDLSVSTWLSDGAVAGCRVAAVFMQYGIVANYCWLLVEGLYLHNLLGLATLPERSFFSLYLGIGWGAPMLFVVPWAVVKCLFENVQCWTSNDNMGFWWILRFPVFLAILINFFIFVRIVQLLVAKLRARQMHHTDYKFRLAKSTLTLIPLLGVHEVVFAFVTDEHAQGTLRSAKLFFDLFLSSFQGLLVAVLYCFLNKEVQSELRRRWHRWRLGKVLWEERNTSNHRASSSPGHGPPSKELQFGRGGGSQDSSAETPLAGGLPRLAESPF

pIC50	SMILES
6.19	COCc1c(C(Nc2ccc(C(=O)N(C)CCC(=O)O)cc2)C2CCCCC2)oc2ccc(F)cc12 (single isomer, unassigned) [Example A49, 3-[{[4-({cyclohexyl[5-fluoro-3-(methoxymethyl)-1-benzofuran-2-yl]methyl}amino)phenyl]carbonyl}(methyl)amino]propanoic acid]
6.39	CC(C)c1nn(-c2ccc(C(F)(F)F)cn2)cc1C(Nc1ccc(C(=O)N(C)CCC(=O)O)cc1)C1CCCCC1 (stereo not shown) [Example 8, 3-[({4-[(cyclohexyl{3-(1-methylethyl)-1-[5-(trifluoromethyl)pyridin-2-yl]-1H-pyrazol-4-yl}methyl)amino]phenyl}carbonyl)(methyl)amino]propanoic acid]

Same assay, conditions: test compound 10 μM; 0.4% DMSO = 0%, non-labeled glucagon 1 μM = 100%; read-out: inhibitory rate (%) at 10 μM

inhibition at 10 µM [%]	SMILES
86	COCc1c(C(Nc2ccc(C(=O)N(C)CCC(=O)O)cc2)C2CCCCC2)oc2ccc(F)cc12 (single isomer, unassigned) [Example A49, 3-[{[4-({cyclohexyl[5-fluoro-3-(methoxymethyl)-1-benzofuran-2-yl]methyl}amino)phenyl]carbonyl}(methyl)amino]propanoic acid]
73	Cc1nn(-c2ccc(C(F)(F)F)cn2)cc1C(Nc1ccc(C(=O)NCCC(=O)O)cc1)C1CCCCC1 (stereo not shown) [Example 1, 3-[({4-[(Cyclohexyl{3-methyl-1-[5-(trifluormethyl)pyridin-2-yl]-1H-pyrazol-4-yl}methyl)amino]phenyl}carbonyl)amino]propanoic acid]
72	Cc1nn(-c2ccc(C(F)(F)F)cn2)cc1C(Nc1ccc(C(=O)N(C)CCC(=O)O)cc1)C1CCCCC1 (stereo not shown) [Example 2, 3-[({4-[(cyclohexyl{3-methyl-1-[5-(trifluoromethyl)pyridin-2-yl]-1H-pyrazol-4-yl}methyl)amino]phenyl}carbonyl)(methyl)amino]propanoic acid]
74	CCc1nn(-c2ccc(C(F)(F)F)cn2)cc1C(Nc1ccc(C(=O)NCCC(=O)O)cc1)C1CCCCC1 (stereo not shown) [Example 3, 3-[({4-[(cyclohexyl{3-ethyl-1-[5-(trifluoromethyl)pyridin-2-yl]-1H-pyrazol-4-yl}methyl)amino]phenyl}carbonyl)amino]propanoic acid]
77	CCc1nn(-c2ccc(C(F)(F)F)cn2)cc1C(Nc1ccc(C(=O)N(C)CCC(=O)O)cc1)C1CCCCC1 (stereo not shown) [Example 4, 3-[({4-[(cyclohexyl{3-ethyl-1-[5-(trifluoromethyl)pyridin-2-yl]-1H-pyrazol-4-yl}methyl)amino]phenyl}carbonyl)(methyl)amino]propanoic acid]
73	CCCc1nn(-c2ccc(C(F)(F)F)cn2)cc1C(Nc1ccc(C(=O)NCCC(=O)O)cc1)C1CCCCC1 (stereo not shown) [Example 5, 3-[({4-[(cyclohexyl{3-propyl-1-[5-(trifluoromethyl)pyridin-2-yl]-1H-pyrazol-4-yl}methyl)amino]phenyl}carbonyl)amino]propanoic acid]
75	CCCc1nn(-c2ccc(C(F)(F)F)cn2)cc1C(Nc1ccc(C(=O)N(C)CCC(=O)O)cc1)C1CCCCC1 (stereo not shown) [Example 6, 3-[({4-[(cyclohexyl{3-propyl-1-[5-(trifluoromethyl)pyridin-2-yl]-1H-pyrazol-4-yl}methyl)amino]phenyl}carbonyl)(methyl)amino]propanoic acid]
72	CC(C)c1nn(-c2ccc(C(F)(F)F)cn2)cc1C(Nc1ccc(C(=O)NCCC(=O)O)cc1)C1CCCCC1 (stereo not shown) [Example 7, 3-[({4-[(cyclohexyl{3-(1-methylethyl)-1-[5-(trifluoromethyl)pyridin-2-yl]-1H-pyrazol-4-yl}methyl)amino]phenyl}carbonyl)amino]propanoic acid]
75	CC(C)c1nn(-c2ccc(C(F)(F)F)cn2)cc1C(Nc1ccc(C(=O)N(C)CCC(=O)O)cc1)C1CCCCC1 (stereo not shown) [Example 8, 3-[({4-[(cyclohexyl{3-(1-methylethyl)-1-[5-(trifluoromethyl)pyridin-2-yl]-1H-pyrazol-4-yl}methyl)amino]phenyl}carbonyl)(methyl)amino]propanoic acid]
74	O=C(O)CCNC(=O)c1ccc(NC(c2cn(-c3ccc(C(F)(F)F)cn3)nc2C2CC2)C2CCCCC2)cc1 (stereo not shown) [Example 9, 3-[({4-[(cyclohexyl{3-cyclopropyl-1-[5-(trifluoromethyl)pyridin-2-yl]-1H-pyrazol-4-yl}methyl)amino]phenyl}carbonyl)amino]propanoic acid]
76	CN(CCC(=O)O)C(=O)c1ccc(NC(c2cn(-c3ccc(C(F)(F)F)cn3)nc2C2CC2)C2CCCCC2)cc1 (stereo not shown) [Example 10, 3-[({4-[(cyclohexyl{3-cyclopropyl-1-[5-(trifluoromethyl)pyridin-2-yl]-1H-pyrazol-4-yl}methyl)amino]phenyl}carbonyl)(methyl)amino]propanoic acid]
73	O=C(O)CCNC(=O)c1ccc(NC(c2cn(-c3ccc(C(F)(F)F)cn3)nc2CCc2ccccc2)C2CCCCC2)cc1 (stereo not shown) [Example 11, 3-[({4-[(cyclohexyl{3-(2-phenylethyl)-1-[5-(trifluoromethyl)pyridin-2-yl]-1H-pyrazol-4-yl}methyl)amino]phenyl}carbonyl)amino]propanoic acid]
74	CN(CCC(=O)O)C(=O)c1ccc(NC(c2cn(-c3ccc(C(F)(F)F)cn3)nc2CCc2ccccc2)C2CCCCC2)cc1 (stereo not shown) [Example 12, 3-[({4-[(cyclohexyl{3-(2-phenylethyl)-1-[5-(trifluoromethyl)pyridin-2-yl]-1H-pyrazol-4-yl}methyl)amino]phenyl}carbonyl)(methyl)amino]propanoic acid]
71	CC(C)(C)c1nn(-c2ccc(C(F)(F)F)cn2)cc1C(Nc1ccc(C(=O)NCCC(=O)O)cc1)C1CCCCC1 (stereo not shown) [Example 13, 3-{[(4-{[{3-tert-butyl-1-[5-(trifluoromethyl)pyridin-2-yl]-1H-pyrazol-4-yl}(cyclohexyl)methyl]amino}phenyl)carbonyl]amino}propanoic acid]
71	CN(CCC(=O)O)C(=O)c1ccc(NC(c2cn(-c3ccc(C(F)(F)F)cn3)nc2C(C)(C)C)C2CCCCC2)cc1 (stereo not shown) [Example 14, 3-{[(4-{[{3-tert-butyl-1-[5-(trifluoromethyl)pyridin-2-yl]-1H-pyrazol-4-yl}(cyclohexyl)methyl]amino}phenyl)carbonyl](methyl)amino}-propanoic acid]
72	O=C(O)CCNC(=O)c1ccc(NC(c2cn(-c3ccccc3)nc2CCc2ccccc2)C2CCCCC2)cc1 (stereo not shown) [Example 15, 3-({[4-({cyclohexyl[1-phenyl-3-(2-phenylethyl)-1H-pyrazol-4-yl]methyl}amino)phenyl]carbonyl}amino)propanoic acid]
63	CN(CCC(=O)O)C(=O)c1ccc(NC(c2cn(-c3ccccc3)nc2CCc2ccccc2)C2CCCCC2)cc1 (stereo not shown) [Example 16, 3-[{[4-({cyclohexyl[1-phenyl-3-(2-phenylethyl)-1H-pyrazol-4-yl]methyl}amino)phenyl]carbonyl}(methyl)amino]propanoic acid]
80	Cc1nn(-c2ccccc2)cc1C(Nc1ccc(C(=O)NCCC(=O)O)cc1)C1CCCCC1 (stereo not shown) [Example 17, 3-{[(4-{[cyclohexyl(3-methyl-1-phenyl-1H-pyrazol-4-yl)methyl]amino}phenyl)carbonyl]amino}propanoic acid]
72	Cc1nn(-c2ccccc2)cc1C(Nc1ccc(C(=O)N(C)CCC(=O)O)cc1)C1CCCCC1 (stereo not shown) [Example 18, 3-{[(4-{[cyclohexyl(3-methyl-1-phenyl-1H-pyrazol-4-yl)methyl]amino}phenyl)carbonyl](methyl)amino}propanoic acid]
80	Cc1nn(-c2ccc(Cl)cc2)cc1C(Nc1ccc(C(=O)NCCC(=O)O)cc1)C1CCCCC1 (stereo not shown) [Example 19, 3-({[4-({[1-(4-chlorophenyl)-3-methyl-1H-pyrazol-4-yl](cyclohexyl)methyl}amino)phenyl]carbonyl}amino)propanoic acid]
79	Cc1nn(-c2ccc(Cl)cc2)cc1C(Nc1ccc(C(=O)N(C)CCC(=O)O)cc1)C1CCCCC1 (stereo not shown) [Example 20, 3-[{[4-({[1-(4-chlorophenyl)-3-methyl-1H-pyrazol-4-yl](cyclohexyl)methyl}amino)phenyl]carbonyl}(methyl)amino]-propanoic acid]
77	Cc1cc(F)ccc1-n1cc(C(Nc2ccc(C(=O)NCCC(=O)O)cc2)C2CCCCC2)c(C)n1 (stereo not shown) [Example 21, 3-({[4-({[1-(4-fluoro-2-methylphenyl)-3-methyl-1H-pyrazol-4-yl](cyclohexyl)methyl}amino)phenyl]carbonyl}amino)propanoic acid]
61	Cc1cc(F)ccc1-n1cc(C(Nc2ccc(C(=O)N(C)CCC(=O)O)cc2)C2CCCCC2)c(C)n1 (stereo not shown) [Example 22, 3-[{[4-({[1-(4-fluoro-2-methylphenyl)-3-methyl-1H-pyrazol-4-yl](cyclohexyl)methyl}amino)phenyl]carbonyl}(methyl)amino]-propanoic acid]
